“Also recorded” adds a separate entry of the source.
B1: RANKL: trimerized recombinant RANKL protein (rRANKL), receptor activator of NF-KB ligand (protein, UniProt O14788 69-317, looked up)
extracellular domain: YFRAQMDPNRISEDGTHCIYRILRLHENADFQDTTLESQDTKLIPDSCRRIKQAFQGAVQKELQHIVGSQHIRAEKAMVDGSWLDLAKRSKLEAQPFAHLTINATDIPSGSHKVSLSSWYHDRGWAKISNMTFSNGKLIVNQDGFYYLYANICFRHHETSGDLATEYLQLMVYVTKTSIKIPSSHTLMKGGSTKYWSGNSEFHFYSINVGGFFKLRSGEEISIEVSNPSLLDPDQDATYFGAFKVRDID
modifications: extracellular domain trimerized

Assays:
Assay type in all cases: cell-based, human
[1] = tested on: ARCaPE, ARCaPM and ARCaPE-RANKL cells; assay: In vitro migration and invasion assays (transwell), ARCaP model
Experimental: Migration and invasion of cancer cells were examined in 24-well plates using either uncoated or collagen I- and growth factor reduced Matrigel (BD Biosciences, Bedford, Mass.)-coated transwells (8 μm pore size), respectively, as previously described. Cells were serum-starved in RPMI 1640 or T-medium (Invitrogen, Carlsbad, Calif.) overnight and dissociated in 10 mM EDTA/HEPES. The lifted cells were washed and counted, and 5×10^4 cells were seeded in 100 μl of serum-free RPMI 1640 or T-medium in the upper chamber of the transwells in the presence or absence of 1 μg/ml OPG and 400 μl of RPMI 1640 or T-medium supplemented with 5% FBS was placed in the lower chamber of the transwells. After 24 h (migration) and 48 h (invasion) of culturing at 37° C., the migrated and invaded cells were fixed with 10% formaldehyde, stained with 0.5% crystal violet, and the cells at the upper side of the membrane of the chamber were removed and quantified.

[2] = tested on: LNCaP cells; assay: EMT marker / RANKL expression and signaling by RT-PCR and Western blot, LNCaP model
Experimental: Total RNA from cells was isolated using RNeasy Mini Kit (Qiagen, Valencia, Calif.) according to manufacturer's instructions. Complementary DNA (cDNA) was generated from 3 μg of total RNA using SuperScript® III First-Strand Synthesis System (Invitrogen, Carlsbad Calif.), and 1 μl of cDNA was subjected to PCR analyses using the following primers: RANKL F: 5′-TGGATCACAGCACATCAGAGCAG-3′ (SEQ ID NO:3); RANKL R: 5′-TGGGGCTCAATCTATATCTCGAAC-3′ (SEQ ID NO:4); RANK F: 5′-GGGAAAGCACTCACAGCTAATTTG-3′ (SEQ ID NO:5); RANK R: 5′-GCACTGGCTTAAACTGTCATTCTCC-3′ (SEQ ID NO:6); OPG F: 5′-GCT AAC CTC ACC TTC GAG-3′ (SEQ ID NO:7); OPG R: 5′-TGA TTG GAC CTG GTT ACC-3′ (SEQ ID NO:8); E-cadherin F: 5′-GCCAAGCAGCAGTACATTCTACACG-3′ (SEQ ID NO:9); E-cadherin R: 5′-GCTGTTCTTCACGTGCTCAAAATCC-3′ (SEQ ID NO:10); N-cadherin F: 5′-GATGTTGAGGTACAGAATCGT-3′ (SEQ ID NO:11); N-cadherin R: 5′-GGT CGG TCT GGA TGG CGA-3′ (SEQ ID NO:12); Snail F: 5′-CAGACCCACTCAGATGTCAA-3′ (SEQ ID NO:13); Snail R: 5′-CATAGTTAGTCACACCTCGT-3′ (SEQ ID NO:14); Vimentin F: 5′-GGA CTC GGT GGA CTT CTC-3′ (SEQ ID NO:15); Vimentin R: 5′-CGC ATC TCC TCC TCG TAG-3′ (SEQ ID NO:16). The PCR reaction cycles involved an initial denaturation at 94° C. for 10 min, followed by 36 cycles of 94° C., 1 min; 55° C., 30 sec for RANKL and RANK and 48° C., 1 min for OPG; 72° C., 1 min and a final extension at 72° C. for 10 min. For E-cadherin and N-cadherin gene amplification, the PCR reactions ran for a total of 32 cycles and the annealing temperature was 55° C. and 47° C., respectively for 30 sec. For Snail, Vimentin, and GAPDH amplification, the PCR reactions ran for a total of 28 cycles with annealing temperatures at 48° C. for 30 sec. The amplified PCR products were detected and analyzed on 1% agarose gel.
ARCaPE and LNCaP cells were cultured in 6-well plate and at 70% confluency, the cells were serum-starved overnight and then treated with 200 ng/ml of trimerized RANKL in serum-free and phenol-red free RPMI-1640 medium for three days before harvesting the cells. ARCaPE-RANKL and LNCaP-RANKL cells were cultured in 6-well plate and treated with 20 μM of LY294002, a PI3K inhibitor, 20 μM of SB203580, an inhibitor of MAP kinase reactivating kinase, or 2 μM of PS341 (bortezomib), a proteasome inhibitor, at 90% confluency for four hours. Cells were lysed in RIPA buffer containing 1× protease inhibitor cocktail (Thermo Fisher Scientific, Waltham, Mass.) and centrifuged, and the supernatants were collected and quantified using Bradford Protein Assay (Thermo Fisher Scientific, Waltham, Mass.). Cell lysates (20-30 μg) were resolved on a 4-12% Bis-Tris gradient SDS-PAGE (Invitrogen, Carlsbad, Calif.) under reducing conditions, followed by transblotting onto nitrocellulose membrane (BioRad, Hercules, Calif.). The membranes were blocked in 5% non-fat milk in PBST for one hour at room temperature (RT) and incubated with diluted primary antibodies in blocking buffer at 4° C. overnight. The primary antibodies used were RANKL, E-cadherin, vimentin, and OPG (Santa Cruz Biotechnology, Inc., Santa Cruz, Calif.), RANK (Amgen, Thousand Oaks, Calif.), N-cadherin (BD Transduction Laboratories, San Jose, Calif.), phosphor-Akt (Ser 473), Akt, phosphor-p38 (Thr180/Tyr182), p38, phosphor-ERK1/2 (Thr202/Tyr204), ERK, phosphor-SAPK/JNK (Thr183/Tyr185), JNK, phosphor-NF-κB p65 (Ser536), and NF-κB p65 (Cell Signaling Technology, Danvers, Mass.). The membranes were washed with PBST for three times before incubating with peroxidase-conjugated anti-mouse or anti-rabbit secondary antibodies at RT for one hour. After three times washing, the membranes were visualized using ECL Plus reagent (GE Healthcare, Piscataway, N.J.).

[3] = tested on: RANKL promoter in LNCaP and LNCaP-RANKL cells; assay: RANKL promoter reporter assay, LNCaP model
[4] = tested on: cMet in LNCaP cells; assay: cMet expression and phosphorylation (Western blot), LNCaP
[5] = tested on: cMet in ARCaPE cells; assay: cMet expression and phosphorylation (Western blot), ARCaPE
[6] = OPG (vs RANKL) or anti-HGF antibody (vs HGF) treatment
[7] = exogeneous RANKL or HGF treatment

| Molecule | increased migration and invasion of ARCaPE-RANKL cells ([1]; OPG treatment) | migration and invasion of ARCaPM cells ([1]; OPG treatment, 1 μg/ml) | RANKL-induced increase of migration and invasion of ARCaPE cells ([1]; presence of OPG) | RANKL-induced RANKL expression in LNCaP cells ([2]; addition of OPG) | RANKL-induced biochemical EMT changes in LNCaP cells ([2]; addition of OPG) | increased RANKL promoter activity in LNCaP-RANKL cells ([3]; OPG treatment) | RANKL- or HGF-induced cMet expression and phosphorylation in LNCaP cells [4, 6] | RANKL- or HGF-induced cMet expression and phosphorylation in ARCaPE cells [5, 6] | migration and invasion of ARCaPE cells ([1]; recombinant RANKL treatment) | RANKL expression at mRNA and protein levels in LNCaP cells ([2]; RANKL treatment) | nuclear levels of cMyc and Max in LNCaP cells ([2]; RANKL-treated versus LNCaP cells) | induction of EMT (EMT-specific markers) in LNCaP cells ([2]; exogenously added RANKL, 200 ng/ml) | phosphorylation of PI3K/Akt, P38 and NFκB proteins in parental LN cells ([2]; treated with RANKL protein) | RANKL promoter activity in LNCaP cells ([3]; RANKL treatment) | cMet expression and phosphorylated level of cMet in LNCaP cells [4, 7] | cMet expression and phosphorylated level of cMet in ARCaPE cells [5, 7] |
| --- | --- | --- | --- | --- | --- | --- | --- | --- | --- | --- | --- | --- | --- | --- | --- | --- |
| osteoprotegerin [OPG] | suppressed | antagonized; also recorded: decreased | abrogated | attenuated | abolished | attenuated | abrogated | abrogated | – | – | – | – | – | – | – | – |
| B1 | – | – | – | – | – | – | – | – | increased | induced; also recorded: up-regulated | higher | confirmed; also recorded: decreased epithelial marker E-cadherin and increased mesenchymal marker vimentin, N-cadherin, and Snail | elevated | induction | significantly increased | significantly increased |

— US20130263297A1, “METHODS OF TREATING CANCER” (Cedars-Sinai Medical Center, priority 2010, published 2013)
